According to patent US7189761B2, “Nitric oxide donor composition and method for treatment of anal disorders” (priority 1994, dated 2007):
Read-outs that look alike come from different tables or passages of the source. Ends that are not written are not given here.

What was measured:
[1] = test system: internal anal sphincter (IAS); conditions: cited from earlier work; for effect on the decrease in IAS resting pressures in response to the rectoanal reflex: reflex mimicked by rectal balloon distention; for reversal of the L-NNA suppression of rectoanal reflex-induced IAS relaxation: in vivo
[2] = test system: smooth muscle strips of the internal anal sphincter (IAS); conditions: cited from earlier work
[3] = test system: human internal anal sphincter muscle strips; conditions: cited from earlier work; for effect on relaxations produced by transmural field stimulation: in the presence of atropine and guanethidine
[4] = test system: anal fissure; assay: Case reports: topical ointment in patients with anal fissure; format: in vivo, human; conditions: person, superficial posterior midline anal fissure, patient history
Protocol: The patient rated their pre-treatment pain 7/10. The patient applied approximately 500 mg of the ointment as prepared in Example 1, three times daily and after bowel movements. The patient reported that their pain was gone following initial application.
The patient rated their pre-treatment pain 7/10. The patient applied approximately 500 mg of the ointment as prepared in Example 1, three times daily and after bowel movements. […] After three weeks of treatment, the fissure was healed, and the pain was gone.
They had previously failed a course of hydrocortisone therapy. Pre-treatment pain was rated 9/10. The patient was treated with approximately 500 mg of the preparation of Example 1, three times daily and after bowel movements. After one week of treatment, the fissure was still present, and pain was rated 8/10. The patient was then treated with approximately 500 mg of the preparation of Example 2, three times daily and after bowel movements. Following one week of therapy with the ointment as of Example 2, the patient reported no pain and no bleeding.
Pre-treatment pain was rated 4/10. The patient was treated with the ointment as of Example 2, approximately 500 mg three times daily and after bowel movements. Following one week of therapy, the patient reported that their pain had diminished, and it was rated 2/10. […]

[5] = response to lower frequencies of EFS and DMPP
[6] = isolated IAS smooth muscle strips

## NC(=NCCC[C@@H](N)C(=O)O)N[N+](=O)[O-] [D-NNA]
[1]
  effect on the decrease in IAS resting pressures in response to the rectoanal reflex: no effect
[2]; [5]
  effect of pretreatment on NO release and fall in IAS resting tension: no significant effect

## N=C(N)NCCC[C@@H](N)C(=O)O [D-arginine]
[1]
  reversal of the L-NNA suppression of rectoanal reflex-induced IAS relaxation: failed to reverse
[2]
  reversal of the loss of NO release and IAS relaxation: no significant effect
[3]
  reversal of the inhibitory effects of NO synthase antagonists: did not reverse

## C[N+]1(C)CCN(c2ccccc2)CC1 [DMPP, 1,1-dimethyl-4-phenylpiperazinium]
[2]
  IAS relaxation and release of NO: caused IAS relaxation with an accompanying release of NO

## N=C(NCCC[C@H](N)C(=O)O)N[N+](=O)[O-] [L-NNA, L-NG-nitro-arginine]
[1]
  effect on the decrease in IAS resting pressures in response to the rectoanal reflex: significant dose-dependent suppression
[2]; IAS smooth muscle strips
  effect on NO release caused by vasoactive intestinal polypeptide: abolished
[2]; [5]
  effect of pretreatment on NO release and fall in IAS resting tension: abolished
[3]
  effect on relaxations produced by transmural field stimulation: completely

## N=C(N)NCCC[C@H](N)C(=O)O [L-arginine]
[1]
  reversal of the L-NNA suppression of rectoanal reflex-induced IAS relaxation: completely reversed
[2]
  reversal of the loss of NO release and IAS relaxation: reversed to control levels
[3]
  reversal of the inhibitory effects of NO synthase antagonists: reversed

## C[C@]12CCC(=O)C=C1CC[C@@H]1[C@@H]2[C@@H](O)C[C@@]2(C)[C@H]1CC[C@]2(O)C(=O)CO [hydrocortisone, 11-17-21-trihydroxypregn-4-ene-3,20-dione]
[4]
  outcome of previous course of therapy: failed

## CC(C)NCC(O)c1ccc(O)c(O)c1 (centres unmarked) [isoproterenol]
[1]; not modified by L-NNA
  effect on the resting pressure of the IAS: decrease
[2]; [6]
  IAS relaxation and release of NO: caused IAS relaxation without any increase in NO release

## NC1=N[C@H](O)[C@H]2[C@H]3O[C@]4(O)O[C@@H]([C@@H](O)[C@@]2(N1)[C@@H]4O)[C@]3(O)CO [tetrodotoxin]
[2]
  effect of pretreatment on NO release and fall in IAS resting tension: abolished

## atrial natriuretic factor
[2]; [6]
  IAS relaxation and release of NO: caused IAS relaxation without any increase in NO release

## oxyhaemoglobin
[3]
  effect on relaxations produced by transmural field stimulation: abolished

## vasoactive intestinal polypeptide: vasoactive intestinal polypeptide (HSDAVFTDNYTRLRKQMAVKKYLNSILN; ends and bridges not checked; UniProt P01282 125-152, looked up)
[2]; [6]
  IAS relaxation and release of NO: release of NO
